From patent US20230093476A1, “SUBSTITUTED FUSED IMIDAZOLE DERIVATIVES AND METHODS OF TREATING REFRACTIVE OCULAR DISORDERS” (vTv Therapeutics LLC, priority 2020, published 2023)

How the values were obtained:
lens from aged mice = experiment: In vitro lens elasticity, coverslip method, cultured lenses from aged mice; type: cell-based, C57BL/6J mice; conditions: for efficacy compared with positive control groups using lipoic acid: 50 μM and 500 μM; for Change in Diameter (μm) (Mean ± S.E.): about 14 hours incubation at 37° C., mouse lens; for lens elasticity relative to control: both concentrations of 50 μM and 500 μM; for dose dependence of elasticity increase: from the lower dose (50 μM) to the higher dose (500 μM)
Experimental: Test compounds (Examples 46 and 134) at 50 μM and 500 μM, Positive Control of Lipoic Acid at 50 μM and 500 μM, and control treatment were administered to lenses (12 per group) according to methods described in Invest Ophthalmol Vis Sci. 2016; 57:2851-2863. Briefly, seven month old C57BL/6J mice (male) were euthanized by CO2 overdose. Lenses were removed and placed in culture medium. Lenses were incubated for about 2 hours at 37° C. The medium was replaced with fresh medium supplemented with test compounds or with fresh medium. After about 14 hours incubation at 37° C., lenses were removed from culture medium.
(§1) Measurement of lens elasticity was performed according to the methods described in Invest Ophthalmol Vis Sci. 2016; 57:2851-2863. Briefly, lenses were placed on slides and photographed. A second photograph was taken after a coverslip was placed on the lens. Equatorial diameters changed by the coverslips placed on the lens were analyzed.

mouse lens = experiment: Lens elasticity under 2-week repeated topical instillation (TID), coverslip method; type: in vivo, C57BL/6J mice; conditions: for efficacy compared with 1.5% solutions comprising LACE: 0.5% and 1.5% solutions; for efficacy compared with 1.5% solutions comprising LACE / Right Eye Change in Diameter (μm) (Mean ± S.E.): TID; for efficacy compared with 1.5% solutions comprising LACE / Right Eye Change in Diameter (μm) (Mean ± S.E.) / elasticity of the mouse lenses: 2 weeks; for Right Eye Change in Diameter (μm) (Mean ± S.E.): treated right eye; for elasticity of the mouse lenses: repeated instillation of 0.15%, 0.5%, 1.5% solutions TID
Experimental: Test compounds (Examples 46 and 134), positive control of Lipoic Acid Choline Ester (LACE), and control treatment were topically administered to right eyes according to methods described in Invest Ophthalmol Vis Sci. 2016; 57:2851-2863. Briefly, eight month old C57BL/6J mice (male) were treated with 2.5 μL of each test sample three times per day (TID) at about 4-hour intervals in the right eyes for 2 weeks. The left eyes were used as untreated controls. Each treatment group included 10 mice, and the vehicle group included 5 mice.
as §1, with “after 2-week treatment, mice were euthanized by CO2 overdose. Lenses were removed and analyzed for changes in elasticity. Lenses” for “lenses”

[1] = Table 2, left eye = untreated control eye of mice given 1.5% solution in right eye
[2] = Table 3, left eye = untreated control eye of mice given 1.5% solution in right eye

| SMILES | efficacy compared with positive control groups using lipoic acid (lens from aged mice) | Change in Diameter (μm) (Mean ± S.E.) (lens from aged mice; 50 μM) | Change in Diameter (μm) (Mean ± S.E.) (lens from aged mice; 500 μM) | lens elasticity relative to control (lens from aged mice) | dose dependence of elasticity increase (lens from aged mice) | efficacy compared with 1.5% solutions comprising LACE (mouse lens) | Right Eye Change in Diameter (μm) (Mean ± S.E.) (mouse lens; Table 2, 0.15% solution) | Right Eye Change in Diameter (μm) (Mean ± S.E.) (mouse lens; Table 2, 0.5% solution) | Right Eye Change in Diameter (μm) (Mean ± S.E.) (mouse lens; Table 2, 1.5% solution) | Left Eye Change in Diameter (μm) (Mean ± S.E.) (mouse lens; Table 2, left eye = untreated control eye of mice given 0.15% solution in right eye) | Left Eye Change in Diameter (μm) (Mean ± S.E.) (mouse lens; Table 2, left eye = untreated control eye of mice given 0.5% solution in right eye) | Left Eye Change in Diameter (μm) (Mean ± S.E.) (mouse lens; [1]) | elasticity of the mouse lenses (mouse lens) | Right Eye Change in Diameter (μm) (Mean ± S.E.) (mouse lens; Table 3, 0.15% solution) | Right Eye Change in Diameter (μm) (Mean ± S.E.) (mouse lens; Table 3, 0.5% solution) | Right Eye Change in Diameter (μm) (Mean ± S.E.) (mouse lens; Table 3, 1.5% solution) | Left Eye Change in Diameter (μm) (Mean ± S.E.) (mouse lens; Table 3, left eye = untreated control eye of mice given 0.15% solution in right eye) | Left Eye Change in Diameter (μm) (Mean ± S.E.) (mouse lens; Table 3, left eye = untreated control eye of mice given 0.5% solution in right eye) | Left Eye Change in Diameter (μm) (Mean ± S.E.) (mouse lens; [2]) |
| --- | --- | --- | --- | --- | --- | --- | --- | --- | --- | --- | --- | --- | --- | --- | --- | --- | --- | --- | --- |
| CN(C)C(=O)CNC(=O)c1ccc2c(c1)nc(Nc1nc3ccc(C(F)(F)F)cc3s1)n2C [Example 134, 1-Methyl-2-(6-trifluoromethyl-benzothiazol-2-ylamino)-1H-benzimidazole-5-carboxylic acid dimethylcarbamoylmethyl-amide] | almost the same | 59.6 ± 3.4 | 72.3 ± 4.0 | significantly increased | dose dependent increase | better than or equivalent to | 46.0 ± 5.0 | 74.3 ± 8.3 | 80.0 ± 5.3 | 33.5 ± 5.9 | 51.7 ± 5.3 | 39.7 ± 6.5 | significantly increased | – | – | – | – | – | – |
| Cn1c(Nc2nc3ccc(OC(F)(F)F)cc3s2)nc2cc(C(=O)NCCOCCO)ccc21 [Example 46, 1-Methyl-2-(6-trifluoromethoxy-benzothiazol-2-ylamino)-1H-benzoimidazole-5-carboxylic acid [2-(2-hydroxy-ethoxy)-ethyl]-amide] | almost the same | 67.4 ± 5.6 | 80.4 ± 5.3 | significantly increased | dose dependent increase | better than or equivalent to | – | – | – | – | – | – | significantly increased | 42.3 ± 4.0 | 63.2 ± 5.4 | 62.7 ± 3.4 | 32.2 ± 4.3 | 34.7 ± 4.5 | 41.3 ± 3.9 |
| O=C(O)CCCC[C@@H]1CCSS1 (racemic) [Lipoic Acid, reference compound] | – | 63.8 ± 6.5 | 83.8 ± 7.4 | – | – | – | – | – | – | – | – | – | – | – | – | – | – | – | – |
| C[N+](C)(C)CCOC(=O)CCCC[C@@H]1CCSS1 [LACE, Lipoic Acid Choline Ester, reference compound] | – | – | – | – | – | – | – | – | 64.5 ± 4.5 | – | – | 41.5 ± 5.2 | – | – | – | 60.8 ± 2.9 | – | – | 30.1 ± 6.0 |
